Measured values from US10159684B2, “Pharmaceutical compositions for preventing glucocorticoid-induced corneal thinning” (INSERM (INSTITUT NATIONAL DE LA SANTE ET DE LA RECHERCHE …, priority 2013, dated 2018).

How the values were obtained:
[1] = test system: mice with MR overexpression in keratinocytes; assay: MR antagonist given during pregnancy to mice with MR overexpression in keratinocytes (K5-MR); assay type: in vivo; settings: pregnant mice received the MR antagonist all along pregnancy; two litters
Description: To test whether the reduced epidermal thickness is related to excessive MR activation in this mouse model, we administered an antagonist of the mineralocorticoid receptor during pregnancy of the mice. […] The question arises to know which MR ligand activates the MR in this condition. Because of the absence of HSD2 (the enzyme that inactivates glucocorticoids) in the epidermis (Kenouch S, Lombes M, Delahaye F, Eugene E, Bonvalet J P, Farman N. Human skin as target for aldosterone: coexpression of mineralocorticoid receptors and 11 beta-hydroxysteroid dehydrogenase. J Clin Endocrinol Metab. 1994: 79(5): 1334-41), it is likely that MR bound ligand is endogenous corticosterone, rather than aldosterone.

[2] = test system: human skin explants; assay: Organotypic culture of human skin explants, epidermal thickness; assay type: cell-based; settings: clobetasol 100 nM plus MR blocker 10 micromolar, 6 days, air/liquid interface; FIG. 3
Method: Human skin explants grown as organotypic culture represent a valuable model to study cx vivo epidermal homeostasis. Skin punches (3 mm) were made (accupunch) from human skin (discarded during mammary gland surgery) and placed in organotypic culture as explants (air/liquid interface) in 2 ml DMEM and 10% decomplemented charcoal-stripped foetal bovine scrum to remove steroids for 6 days, in the presence of clobetasol (100 nM) alone or together with spironolactone or canrenoate (potassium canrenoate) (10 micromolar) or solvent alone (0.1% ethanol).

[3] = test system: normal adult mice; assay: Glucocorticoid-induced reduction of epidermal thickness in normal adult mice, topical application over the back pelage; assay type: in vivo; settings: 7 days; for epidermal thickness, MR antagonist added to clobetasol: spironolactone 10 mM added to clobetasol 0.1 mM solution, FIG. 2
Method: In another set of experiments, we used normal adult mice that were treated by application of glucocorticoid (clobetasol, as 0.1 mM ethanol solution) alone or together with spironolactone (10 mM) over the back pelage, during 7 days.

Structure (SMILES) | epidermal thickness of double-transgenic pups (histology) [1] | skin appearance of double-transgenic pups [1] | thickness of the epidermis, MR blocker together with clobetasol [2] | epidermal thickness, glucocorticoid alone ([3]; clobetasol 0.1 mM ethanol solution, topical over back pelage) | epidermal thickness, MR antagonist added to clobetasol ([3]; topical) | epidermal thickness, MR antagonist added to clobetasol ([3]; topical, listed as Spironolactone) | epidermal thickness, MR antagonist alone ([3]; spironolactone alone, topical)
C[C@]12CCC(=O)C=C1C=C[C@@H]1[C@@H]2CC[C@@]2(C)[C@H]1CC[C@@]2(O)CCC(=O)O [Canrenoate, potassium canrenoate] | histologically normal epidermal thickness | normal skin appearance | increase the thickness of the epidermis |  |  |  | 
C[C@H]1C[C@H]2[C@@H]3CCC4=CC(=O)C=C[C@]4(C)[C@@]3(F)[C@@H](O)C[C@]2(C)[C@@]1(O)C(=O)CCl [Clobetasol, clobetasol] |  |  |  | drastic reduction of epidermal thickness |  |  | 
CC(=O)S[C@@H]1CC2=CC(=O)CC[C@]2(C)[C@H]2CC[C@@]3(C)[C@@H](CC[C@@]34CCC(=O)O4)[C@H]12 [spironolactone, 17-hydroxy-7α-mercapto-3-oxo-17α-pregn-4-ene-21-carboxylic acid γ-lactone acetate] |  |  | increase the thickness of the epidermis |  | reduction in epidermal thickness induced in mice by the glucocorticoid clobetasol was limited | significantly increased epidermal thickness | had no effect
